Earlier results, collected in US20150265628A1, “GENOMIC TESTING FOR EFFECTIVE THERAPIES AND DETERMINATION OF DOSING STRATEGY” (CompanionDx Reference Lab, LLC, priority 2014, published 2015).

Key:
[1] = patients with schizophrenia, while taking the drug; perphenazine 1.0 as comparator
HLA-DQB1 = conditions: marker carriers, under the current blood-monitoring system

| SMILES | risk of death from suicide, adjusted for risk factors [1] | risk of CIA higher than the overall clozapine-treated population (HLA-DQB1) |
| --- | --- | --- |
| CN1CCN(C2=Nc3cc(Cl)ccc3Nc3ccccc32)CC1 [clozapine] | 0.34 | 1,175% |
| OCCN1CCN(CCCN2c3ccccc3Sc3ccc(Cl)cc32)CC1 [perphenazine] | 1.0 |  |
| OCCOCCN1CCN(C2=Nc3ccccc3Sc3ccccc32)CC1 [quetiapine] | 1.58 |  |
